Measurements from patent EP0314302A2, “Herbicidal o-carbomethoxy-sulfonylureas” (E.I. DU PONT DE NEMOURS AND COMPANY, priority 1987, dated 1989).

How the values were obtained:
Wild radish = assay: Test 7 postemergence; type: in vivo, Raphanus raphanistruna; details: scale 0-100
Experimental: (§1) Individual 11.4-cm plastic pots filled with planting medium were seeded with rape, wild radish (Raphanus raphanistruna). tansy mustard (Descurainia pinnata), ball mustard (Neslia paniculata), black mustard (Brassica nigra), yellow mustard, brown mustard, lentils, safflower, flax, sunflower, peanut, vetch, alfalfa, field bean, pea, violet (Viola spp), Kochia (Kochia spp), Russian thistle (Salsola spp), Matricaria spp, groundsel (Senecio spp), shepherdspurse (Capsella bursa-pastoris), nightshade (Solanum spp), sowthistle (Sonchus spp), sugar beet, wheat, "Bonanza" barley and "Morex" barley, Kentucky bluegrass (Poa pratensis), red clover (Trifolium pratense), dandelion (Taraxacum spp) and buckhorn plantain (Plantago lanceolata).
(§2) Plants were treated postemergence with the compound formulated with a non-phytotoxic carrier. Plants were visually rated 18 days after treatment (DAT). Response ratings were based on the scale of 0 to 100 where 0 = no effect, 20 = minimal injury and 100 = complete control.

Buckhorn plantain = assay: Test 7 postemergence; type: in vivo, Plantago lanceolata; details: scale 0-100
Experimental: as §1, §2

Nightshade = assay: Test 7 postemergence; type: in vivo, Solanum spp; details: scale 0-100
Experimental: as §1, §2

Climax timothy = assay: Test 8 postemergence safety to pineapple, turfs and weed control; type: in vivo; details: scale 0-100
Description: (§3) The object of this test was to evaluate the compound of this invention for postemergence safety to pineapple, turfs and weed control. Climax timothy, Kentucky bluegrass, forage fescue, Kentucky fescue, bermudagrass, bentgrass, annual bluegrass, bahiagrass, purple nutsedge, yellow nutsedge, large crabgrass, perennial ryegrass, annual ryegrass, galium and pineapple were sprayed postemergence with the compound in a non-phytotoxic solvent. Plants were visually rated 36 days after treatment (DAT). Injury ratings were based on the scale of 0 to 100 where 0 = no effect, 20 = minimal effect and 100 = complete control.

Kentucky bluegrass = assay: as above; type: in vivo; details: scale 0-100
Description: as §3

Bentgrass = assay: as above; type: in vivo; details: scale 0-100
Description: as §3

Large crabgrass = assay: as above; type: in vivo; details: scale 0-100
Description: as §3

Annual ryegrass = assay: as above; type: in vivo; details: scale 0-100
Description: as §3

Galium = assay: as above; type: in vivo; details: scale 0-100
Description: as §3

Perennial ryegrass = assay: as above; type: in vivo; details: scale 0-100
Description: as §3

Forage fescue = assay: as above; type: in vivo; details: scale 0-100
Description: as §3

Pineapple = assay: as above; type: in vivo; details: scale 0-100
Description: as §3

Kentucky fescue = assay: as above; type: in vivo; details: scale 0-100
Description: as §3

Bermudagrass = assay: as above; type: in vivo; details: scale 0-100
Description: as §3

Bahiagrass = assay: as above; type: in vivo; details: scale 0-100
Description: as §3

Morningglory = assay: Test 11 windowsill flats, postemergence; type: in vivo, Ipomoea spp.; details: Postemergence 32 g/ha, 0.25% X-77 surfactant, scale 0-100
Experimental: Budded citrus seedlings were planted in 30-liter plastic pots which were also seeded with sandbur, guineagrass, narrowleaf panicum, common ragweed, yellow nutsedge, purple nutsedge and bindweed. Compound I was applied preemergence and postemergence to the weeds. Treatments were sprayed to simulate the trunk-to-trunk herbicide application method used in some citrus groves. The compound was also applied postemergence to weeds grown in windowsill flats. The flats were filled with planting medium and seeded with morningglory (Ipomoea spp.). purple nutsedge (Cyperus rotundus), pigweed (Amaranthus spp.), bindweed (Convolvulus spp.), narrowleaf panicum (Panicum maximum), common ragweed (Ambrosia artemisiifolia), sandbur (Cenchrus echinatus), itchgrass (Rottboellia exaltata), johnsongrass (Sorghum halepense), guineagrass (Panicum maximum), smooth crabgrass (Digitaria ischaemum), broadleaf signalgrass (Brachiaria platyphylla), bermudagrass (Cynodon dactylon), goosegrass (Eleusine indica), large crabgrass (Digitaria sanguinalis) and yellow nutsedge (Cyperus esculentus).
The compound was formulated and sprayed with 0.25% X-77 surfactant in water. Plants were visually rated 21 and 29 days after treatment and compared with appropriate controls. Injury ratings were based on the scale of 0 to 100, where 0 indicates no effect, 20 indicates minimum effect and 100 indicates complete control. […]

Cirsium arvense = assay: Test 2 perennial weeds from rhizomes; type: in vivo; details: 0.5% v/v non-ionic surfactant, scale 0-100
Experimental: (§4) Rhizomes of Agropyron repens and Cirsium arvense were planted in 17.5-cm plastic pots and grown in the greenhouse for 5 months prior to herbicide application. Plants were 24 to 35 cm tall and releasing lateral buds at the time of treatment. Compound I was diluted in water containing 0.5% v/v non-ionic surfactant and applied to the plants. The degree of weed control was visually rated 36 days after application of the herbicide. Control ratings were based upon comparison to an untreated control using a scale of 0 to 100 where 0 indicated no effect and […] represented death of all foliar portions with no regrowth apparent.

Agropyron repens = assay: Test 2 perennial weeds from rhizomes; type: in vivo; details: 0.5% v/v non-ionic surfactant, scale 0-100
Experimental: as §4

Compound: COC(=O)c1cccnc1S(=O)(=O)NC(=O)Nc1nc(OC)cc(OC)n1 [Compound I, 2-[[(4,6-dimethoxypyrimidin-2-yl)aminocarbonyl]aminosulfonyl]-3-pyridinecarboxylic acid, methyl ester]
- Plant Injury Rating 18 DAT (Wild radish; 16 g/ha): 100
- Plant Injury Rating 18 DAT (Wild radish; 32 g/ha): 100
- Plant Injury Rating 18 DAT (Buckhorn plantain; 16 g/ha): 30
- Plant Injury Rating 18 DAT (Buckhorn plantain; 32 g/ha): 50
- Plant Injury Rating 18 DAT (Nightshade; 16 g/ha): 50
- Plant Injury Rating 18 DAT (Nightshade; 32 g/ha): 60
- Plant Injury Rating 36 DAT (Climax timothy; 16 g/ha): 100
- Plant Injury Rating 36 DAT (Climax timothy; 32 g/ha): 100
- Plant Injury Rating 36 DAT (Kentucky bluegrass; 16 g/ha): 100
- Plant Injury Rating 36 DAT (Kentucky bluegrass; 32 g/ha): 100
- Plant Injury Rating 36 DAT (Bentgrass; 16 g/ha): 70
- Plant Injury Rating 36 DAT (Bentgrass; 32 g/ha): 100
- Plant Injury Rating 36 DAT (Large crabgrass; 16 g/ha): 60
- Plant Injury Rating 36 DAT (Large crabgrass; 32 g/ha): 80
- Plant Injury Rating 36 DAT (Annual ryegrass; 16 g/ha): 100
- Plant Injury Rating 36 DAT (Annual ryegrass; 32 g/ha): 100
- Plant Injury Rating 36 DAT (Galium; 16 g/ha): 100
- Plant Injury Rating 36 DAT (Galium; 32 g/ha): 100
- Plant Injury Rating 36 DAT (Perennial ryegrass; 16 g/ha): 100
- Plant Injury Rating 36 DAT (Perennial ryegrass; 32 g/ha): 100
- Plant Injury Rating 36 DAT (Forage fescue; 16 g/ha): 100
- Plant Injury Rating 36 DAT (Forage fescue; 32 g/ha): 100
- Plant Injury Rating 36 DAT (Pineapple; 16 g/ha): 0
- Plant Injury Rating 36 DAT (Pineapple; 32 g/ha): 0
- Plant Injury Rating 36 DAT (Kentucky fescue; 16 g/ha): 100
- Plant Injury Rating 36 DAT (Kentucky fescue; 32 g/ha): 100
- Plant Injury Rating 36 DAT (Bermudagrass; 16 g/ha): 0
- Plant Injury Rating 36 DAT (Bermudagrass; 32 g/ha): 0
- Plant Injury Rating 36 DAT (Bahiagrass; 16 g/ha): 70
- Plant Injury Rating 36 DAT (Bahiagrass; 32 g/ha): 100
- Injury ratings (Morningglory): 90
- Control ratings 36 DAT (Cirsium arvense; 16 g/ha): 40
- Control ratings 36 DAT (Cirsium arvense; 32 g/ha): 50
- Control ratings 36 DAT (Cirsium arvense; 64 g/ha): 50
- Control ratings 36 DAT (Agropyron repens; 16 g/ha): 85
- Control ratings 36 DAT (Agropyron repens; 32 g/ha): 90
- Control ratings 36 DAT (Agropyron repens; 64 g/ha): 95
